# Reference: patent publication US20070078373A1, “PULSATILE DELIVERY OF GONADOTROPIN-RELEASING HORMONE FROM A PRE-LOADED INTEGRATED ELECTROTRANSPORT PATCH” (Vyteris, Inc., priority 2005, published 2007)
# Structures can show the parent of a compound that is named as a salt.
# Tests used:
# [1] = Pulsatile transdermal iontophoresis of GnRH in pigs, plasma PK (Example 1); assay type: in vivo, Yorkshire pigs; settings: for plasma concentrations: condition #2 (2 mg/mL patch)
# Experimental: (§1) Six prepubescent female Yorkshire pigs were used for this Example. A crossover design was used whereby each animal received both subcutaneous (SC) and iontophoretic treatments. Subcutaneous and iontophoresis experiments were spaced two weeks apart to meet acceptable animal blood draw limits. The subcutaneous injection experiments were performed first in the sequence. During the two week study the animal weights ranged from 15-32 kg.
# The animal hair were clipped the night before the experiment. Prior to applying patches, a skin site free of obvious cuts and scrapes was selected. The selected skin site was wiped clean with warm water and an alcohol-loaded gauze pad and patted dry.
# Iontophoretic hydrogel patches prepared according to Patch Fabrication Platform I (5 cm^2 active area) were used in these studies. The patches were loaded with GnRH (HCl) solution to provide final concentration of either 10 mg/mL, GnRH (HC 1) or 2 mg/mL GnRH (HCl) in the patch. The pH of the gel surface was from about 5 to about 5.5.
# (§2) All animals were placed in a sling under general propofol anesthesia and jugular, ear vein and arterial catheters placed percutaneously. For subcutaneous injection studies, a venous catheter was placed against the lower abdominal wall of the animal and 20 μg of drug was injected at 90-min intervals (total 5 dosing cycles). Each drug injection was followed by saline flush. The subcutaneous injection study in each animal was followed by iontophoresis administration in the same animal two weeks later. The iontophoresis experiments also involved five dosing cycles at 90-minute intervals. The drug loaded patches were placed on the back of the animal just off the midline section.
# A laboratory controller was used as a constant current source. The controller is a battery operated electrotransport controller and delivers a preprogrammed current density profile for experimental studies. In addition, the controller measures the voltage across and the current through an electrotransport patch during drug delivery. The accuracy of the delivered current is ±1% of full-scale. The controller has a maximum voltage of 35 V and can take readings once per second for up to an hour. The accuracy of the recorded current is ±1% of full-scale. The accuracy of the recorded voltage is 0.8 V Max. There are no moving parts on the controller. Infrared transmission of the delivery profile and data retrieval to a computer ensures there are no disturbances during the treatment of a subject.
# Example 1 utilized a current delivery profile comprising five cycles of eight minute pulses each having a current of 1.2 mA, with rest times of 90 minutes between pulses.
# (§3) Blood samples were drawn from the jugular catheter into pre-chilled 3 mL vacutainer tubes using the following protocol. The tubes contained EDTA (1 mg/mL of blood) and Aprotinin (500 KIU/mL, of blood). A 2 mL, flush volume of blood was drawn followed by a 3 mL sample. The blood samples were withdrawn as outlined in Table G below. The tubes were centrifuged within 15 min of blood collection at 1600 rpm for 15 min at 4° C. The separated plasma was split into two (approximately equal volume) 2 mL tubes and frozen on dry ice. Samples were stored at −70° C. until shipment. The samples were analyzed using an I^125 radio labeled immnunoassay.
# All experimental animals were allowed to recover from anesthesia after sutaneous treatment. The jugular catheter was left over night and removed after 24 hour blood draw was complete. Immediately following the 24 hour iontophoresis blood draw, animals were euthanized. Animal 1 died seven days after subcutaneous treatment. Animals 2, 3, and 4 received iontophoresis under condition #1 and animals 5 and 6 received iontophoresis under condition #2.
# [2] = parameters: species or system Yorkshire pigs; settings: pig, in vivo
# Experimental: Three prepubescent female Yorkshire pigs (numbered 13-15) were used in this Example. Each animal received one iontophoretic treatment for eight 90 minute cycles and a ninth cycle with subcutaneous (“SC”) dosing for comparison. The ionotophoretic devices were prepared according to Patch Fabrication Platform I (5 cm^2 active area). The patches were loaded with GnRH (HCl) solution to provide final concentration of 25 mg/mL, GnRH. The pH of the gel surface was measured to be 5.0±0.5. The patches were stored at 5° C. at all times except during travel to the study site. The SC dosing solution used in animal 13 was prepared 4 days before use and stored at room temperature (“RT”). The SC dosing solution used in animal 14 was prepared 6 days before use and stored mainly at RT. The SC dosing solution used in animal 15 was prepared 1 day before use and stored at RT. During the study, the animal weights ranged from approximately 15-30 kg. […] The animals were prepared as described in Example 1. The drug loaded patches were placed on the back of the animal just off the midline section. One patch each was used throughout the eight delivery pulses. The controller, as described in Example 1, was used as a constant current source. Blood samples were drawn from a jugular catheter at times as disclosed in Table P, and treated according to the analytical protocol set forth in Example 1.
# in vivo = test: in vivo; parameters: species or system Yorkshire pigs; settings: pig, sc
# Experimental: as §1
# The subcutaneous dosing solutions of concentration 200 μg/mL and 400 μg/mL, were prepared in pH 5.0 water (pH of maximum stability), Pigs 1 and 2 received 50 μl of 400 μg/mL, solution, while pigs 3-6 received 100 μl of 200 μg/mL, solution for each of the 5 doses.
# as §2, §3
# [3] = parameters: species or system Yorkshire pigs; settings: pig, in vivo; remark: listed apart in the source
# Experimental: Six prepubescent female Yorkshire pigs (numbered from 7-12) were used in this set of studies. Each animal received two iontophoretic treatments. A first set of three animals received 50 mg/mL, drug concentration using five 8-min pulses (condition #3) and a week later received the same concentration using eight 5-min pulses (condition #5). A second set of three animals received 25 mg/mL drug concentration using five 8-min pulses (condition #4) and a week later received the same concentration using eight 5-min pulses (condition #6). The five 8-min pulse experiments were performed first in the sequence. During the span of the study the animal weights ranged from approximately 18-33 kg.
# The animals were prepared as described in Example 1. Inotophoretic hydrogel patches prepared according to Patch Fabrication Platform I (5 cm^2 active area) were used in these studies. The patches were loaded with GnRH (HCl) solution to provide final concentration of either 25 mg/mL GnRH (HC l) or 50 mg/mL GnRH (HCl) in the patch. The pH of the gel surface was measured to be 5.0±0.5. The patches were placed on the back of the animal just off the midline section. The controller, as described in Example 1, was used. One patch each was used throughout the entire delivery period for conditions 3-5. For condition #6, the patch was replaced with a fresh patch after pulse 5. The experimental conditions are summarized in Table K. Example 2 utilized current delivery profiles comprising five cycles of eight minute pulses each having a current of 1.2 mA for conditions #3 and #4; and eight cycles of five minute pulses each having a current of 1.2 mA for conditions #5 and #6. Each profile had rest times of 90 minutes between pulses.
# Blood samples were drawn from a jugular catheter at times as disclosed in Table L, and treated according to the protocol set forth in Example 1.
# [4] = condition #1, animal weight normalized, pulses 1-5
structure (smiles),measurement,setting,value
"CC(C)C[C@H](NC(=O)CNC(=O)[C@H](Cc1ccc(O)cc1)NC(=O)[C@H](CO)NC(=O)[C@H](Cc1c[nH]c2ccccc12)NC(=O)[C@H](Cc1cnc[nH]1)NC(=O)[C@@H]1CCC(=O)N1)C(=O)N[C@@H](CCCNC(=N)N)C(=O)N1CCC[C@H]1C(=O)NCC(N)=O [GnRH, gonadorelin hydrochloride]",ratio of the mean CV for AUC between iontophoretic and subcutaneous drug delivery,"[1]; condition #1, all pulses",1.9
same,ratio of the mean CV for Cmax between iontophoretic and subcutaneous drug delivery,"[1]; condition #1, all pulses",2.0
same,Mean coefficient of variation (for AUC) for iontophoretic drug delivery,[1]; [4],35%
same,mean CV (for Cmax) for iontophoretic drug delivery,[1]; [4],40%
same,mean CV (for AUC) for iontophoretic drug delivery,"[1]; condition #1, pulse 1 excluded",15%
same,mean CV (for Cmax) for iontophoretic drug delivery,"[1]; condition #1, pulse 1 excluded",22%
same,ratio of the mean CV for AUC between iontophoretic and subcutaneous drug delivery,"[1]; condition #1, pulse 1 excluded",0.83
same,ratio of the mean CV for Cmax between iontophoretic and subcutaneous drug delivery,"[1]; condition #1, pulse 1 excluded",1.1
same,"percent difference between iontophoresis and subcutaneous means, of the subcutaneous AUC","[1]; condition #1 vs subcutaneous 20 μg dose, animal weight normalized",47%
same,"percent difference between iontophoresis and subcutaneous Cmax means, of the subcutaneous mean Cmax","[1]; condition #1 vs subcutaneous, animal weight normalized",32%
same,plasma concentrations,"[1]; animal 5, first 3 pulses",below assay limit of detection
same,plasma concentrations,"[1]; animal 6, first pulse",below assay limit of detection
same,"Mean AUC for pulses 4 and 5, fold less than iontophoresis condition #1",[1]; condition #2 vs condition #1,5.6 fold
same,"Mean Cmax for pulses 4 and 5, fold less than iontophoresis condition #1",[1]; condition #2 vs condition #1,4.6 fold
same,Tmax,"[1]; female, Yorkshire, pig, in vivo, Tmax",20 min
same,Tmax coefficient of variation over pulses 2-8,[2],9%
same,AUC,"in vivo; female, Yorkshire, 20 ug, Subcut. AUC",0.742 ng·h/mL
same,Tmax,"in vivo; female, Yorkshire, Subcut Tmax",19 min
same,Mean CV (for AUC) for subcutaneous drug delivery,in vivo; 20 ug,18%
same,Mean CV (for Cmax) for subcutaneous drug delivery,in vivo; 20 ug,20%
same,"Mean AUC, less than for 10 mg/mL drug concentration and 8-min pulses (Example 1)",[3],25%
same,"Mean Cmax, less than for 10 mg/mL drug concentration and 8-min pulses (Example 1)",[3],25%
same,"drug delivery, less compared with 10 mg/mL drug concentration and 8-minute pulses",[3],25%
